Measured values published in US8466155B2, “Pyrimidines” (Boehringer Ingelheim International GmbH, priority 2009, dated 2013).

Target: T1, PTK2 (Homo sapiens, UniProt Q05397)
T1 construct: purchased Invitrogen PV3832
Assay: PTK2 enzyme test, Assay 2 (DELFIA, PT66 antibody)
Type: biochemical
Settings: values marked (*), read-out: PTK2 1 h IC50
Description: This test uses active PTK2 enzyme (Invitrogen Code PV3832) and poly-Glu-Tyr (4:1, Sigma P-0275) as the kinase substrate. The kinase activity is detected by means of the phosphorylation of the substrate in a DELFIA™ assay. The phosphorylated substrate is detected with the europium-labelled phosphotyrosine antibody PT66 (Perkin Elmer, No.: AD0040).
In order to determine concentration-activity curves with PTK2-inhibitors the compounds are serially diluted first of all in 100% DMSO and then in kinase dilution buffer (20 mM TRIS/HCl pH 7.5, 0.1 mM EDTA, 0.1 mM EGTA, 0.286 mM sodium orthovanadate, 10% glycerol with the addition of freshly prepared BSA (fraction V, 1 mg/mL) and DTT (1 mM)) and 10 μL of each dilution are dispensed per well in a 96-well microtitre plate (clear U-shaped base plate, Greiner No. 650101) (the inhibitors are tested in duplicates) and mixed with 10 μL/well of PTK2 kinase (0.01 μg/well). PTK2 kinase is diluted accordingly beforehand with kinase dilution buffer. […]
The time-delayed europium fluorescence is then measured in a microtitre plate reader (VICTOR^3, Perkin Elmer). […]
The IC50 values are determined from concentration-activity analyses by iterative calculation using a sigmoid curve analysis algorithm (FIFTY, based on GraphPAD Prism Version 3.03) with a variable Hill coefficient.

T1 sequence (Q05397 whole entry): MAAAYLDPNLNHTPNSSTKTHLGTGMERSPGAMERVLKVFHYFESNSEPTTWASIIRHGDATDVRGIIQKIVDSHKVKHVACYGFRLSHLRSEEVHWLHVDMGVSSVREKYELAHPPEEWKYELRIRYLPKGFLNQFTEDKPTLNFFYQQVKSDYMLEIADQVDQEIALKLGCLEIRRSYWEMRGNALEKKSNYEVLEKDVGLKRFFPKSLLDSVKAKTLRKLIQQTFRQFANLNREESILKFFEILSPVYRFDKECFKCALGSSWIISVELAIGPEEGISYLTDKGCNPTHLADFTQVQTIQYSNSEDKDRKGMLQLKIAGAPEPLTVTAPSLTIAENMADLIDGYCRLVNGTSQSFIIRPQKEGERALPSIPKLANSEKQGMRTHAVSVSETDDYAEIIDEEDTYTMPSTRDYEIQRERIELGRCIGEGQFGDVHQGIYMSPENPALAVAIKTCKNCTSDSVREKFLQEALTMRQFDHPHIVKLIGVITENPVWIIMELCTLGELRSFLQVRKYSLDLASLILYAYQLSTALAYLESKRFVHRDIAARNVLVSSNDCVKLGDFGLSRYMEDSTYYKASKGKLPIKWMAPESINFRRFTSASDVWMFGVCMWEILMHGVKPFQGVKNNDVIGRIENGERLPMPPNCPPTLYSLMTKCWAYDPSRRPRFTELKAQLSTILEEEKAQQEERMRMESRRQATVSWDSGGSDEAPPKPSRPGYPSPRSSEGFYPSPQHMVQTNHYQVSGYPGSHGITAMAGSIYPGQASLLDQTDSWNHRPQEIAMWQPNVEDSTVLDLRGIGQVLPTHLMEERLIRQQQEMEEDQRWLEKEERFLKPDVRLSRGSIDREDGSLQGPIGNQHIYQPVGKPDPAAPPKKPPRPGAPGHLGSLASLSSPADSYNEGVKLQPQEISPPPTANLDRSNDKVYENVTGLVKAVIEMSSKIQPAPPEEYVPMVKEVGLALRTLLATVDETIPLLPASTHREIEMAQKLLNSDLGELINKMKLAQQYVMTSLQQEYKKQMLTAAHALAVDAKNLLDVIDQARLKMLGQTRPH

| IC50 | Structure (SMILES) |
| --- | --- |
| 0.85 nM | COc1cc(N2CCN(C(C)(C)C)CC2)ccc1Nc1ncc(C(F)(F)F)c(O[C@@H]2Cc3ccccc3[C@H]2N(C)S(C)(=O)=O)n1 [Example 90, N-((1R,2R)-2-{2-[4-(4-tert-butyl-piperazin-1-yl)-2-methoxy-phenylamino]-5-trifluoromethyl-pyrimidin-4-yloxy}-indan-1-yl)-N-methyl-methanesulphonamide] |
| 0.4 nM | COc1ccc(C(=O)NC2CCN(C)CC2)cc1Nc1ncc(C(F)(F)F)c(O[C@@H]2Cc3ccccc3[C@H]2N(C)S(C)(=O)=O)n1 [Example 79, 3-{4-[(1R,2R)-1-(methanesulphonyl-methyl-amino)-indan-2-yloxy]-5-trifluoromethyl-pyrimidin-2-ylamino}-4-methoxy-N-(1-methyl-piperidin-4-yl)-benzamide] |
